Reference: publication PMC5491903, “The Selective Phosphoinoside-3-Kinase p110δ Inhibitor IPI-3063 Potently Suppresses B Cell Survival, Proliferation, and Differentiation” (Frontiers in Immunology, 2017)

Experiments:
[1] = tested on: mouse B cells; experiment: mouse B cell proliferation (CFSE); type: cell-based; conditions: αIgM + IL-4, 72 h
Procedure: Next, we evaluated the effects of PI3K inhibitors on B cell proliferation. We stimulated CFSE-stained cells with αIgM + IL-4 or with LPS for 72 h, or with αCD40 + IL-4 or LPS + IL-4 for 96 h. Cells were treated with vehicle or GDC-0941, IPI-3063, IPI-443, or AS-252424 at various concentrations. […] IPI-443 caused a dose-dependent decrease in proliferation, whereas AS-252424 had no effect. […] In B cells stimulated with LPS + IL-4, the inhibitors had similar trends, but with greater variability (Figure 3D). […] Overall, these experiments establish that the selective p110δ inhibitor IPI-3063 is a very potent inhibitor of B cell survival and proliferation in vitro. In addition, selective p110γ inhibition alone had no effect on B cell survival or proliferation.
Total splenocytes (A,B) or purified B cells (C–E) were pretreated with inhibitors for 30 min, then stimulated with (A,B) αIgM + IL-4 for 72 h, (C–E) LPS + IL-4 for 96 h, LPS for 72 h, or αCD40 + IL-4 for 96 h. […] The experiments in panel (C) include low concentrations of IPI-3063 (0.01 and 0.1 nM) Total numbers were determined by the number of B220^+7AAD^−CFSE^lo cells. […]
Before cell surface staining, cells were incubated with TruStain fcX in FACS buffer (0.5% BSA + 0.02% NaN3 in 1× HBSS) to block Fc receptors for 10 min on ice. […] Flow cytometric data were analyzed using FlowJo software (TreeStar). […]

[2] = tested on: human B cells; experiment: human B cell proliferation (CFSE); type: cell-based; conditions: CD40L + anti-human IgM/IgG + hIL-2 + hIL-21, 120 h
Procedure: We also tested the effects of these inhibitors on human B cell proliferation stimulated with human CD40L + anti-human IgM/IgG + hIL-2 + hIL-21. We stimulated CFSE-stained human B cells for 120 h in the presence of GDC-0941, IPI-3063, IPI-443, or AS-252424 at various concentrations. […] IPI-443 caused a dose-dependent decrease in proliferation, whereas AS-252424 had no effect.
(A–C) Purified human B cells were pretreated with inhibitors for 30 min, then stimulated with human CD40L + anti-human IgM/IgG + human IL-2 + human IL-21 for 120 h. Concentrations used were 1 nM, 10 nM, 100 nM, and 1 µM for IPI-443, and 0.1, 1, 10, and 100 nM for IPI-3063. AS252424 concentrations were 100 nM, 300 nM, and 1 µM, and GDC-0941 was at 500 nM. Total numbers and percent divided were determined by the number of CD19^+7AAD^−CFSE^lo cells. Samples were collected by time (*P < 0.05, **P < 0.001, ***P < 0.0001 one-way ANOVA with Newman–Keuls multiple comparison test).
Peripheral blood from normal volunteers was obtained through an Institutional Review Board-approved protocol. Peripheral blood mononuclear cells (PBMCs) were first purified from blood by density gradient centrifugation using Ficoll-Paque. […] B-cell purity was increased from 4% to >70% as measured by FACS analysis (FACSCalibur and CellQuest software; BD Biosciences) using anti-CD19 PE conjugated antibody (eBioscience). […]

Compound	effect on proliferation [1]	effect on proliferation [2]	concentration that blocks/decreases proliferation [1] [nM]	concentration that significantly reduces proliferation [2] [nM]
O=C1NC(=O)/C(=C/c2ccc(-c3ccc(F)cc3O)o2)S1 [AS-252424, reference compound]	no effect	no effect	–	–
CC(C)n1c([C@H](C)Nc2ncnc(N)c2C#N)cc2cccc(-c3ccc(=O)n(C)c3)c2c1=O [IPI-3063]	–	–	1	≥ 1
